In patent US20230218577A1, “USE OF HEAT SHOCK PROTEIN INHIBITORS FOR THE TREATMENT OF NEURODEVELOPMENTAL DISORDERS” (The Children's Medical Center Corporation, priority 2020, published 2023):

Key:
[1] = test system: Hsp90 (panel of human cancer cell lines); settings: read-out: mean IC50 against Hsp90, Kelland et al. 1999; cited from earlier work
[2] = test system: hspB1 mRNA in Tsc2-sh neurons; test: qPCR of hspB1 mRNA in Tsc2-sh neurons; type: cell-based, rat; settings: 50 nM between DIV9-13
Procedure: Tsc2-sh neurons were treated with 17-AGG and it was observed that increased hspB1 expression was reversed by the same dosing scheme that prevented cilia loss (50 nM between DIV9-13) (FIGS. 6A-D). To determine whether a similar dysregulation is present in the brains of TSC patients, the gene expression data from cortical tubers and unaffected brain tissue (Martin et al., The genomic landscape of tuberous sclerosis complex; Nat Commun 8, 15816 (2017)) was examined.
Total RNA was prepared with the RNA kit (Zimo Research) following the instructions of the manufacturer and quantified by a spectrophotometer. A total of 1 μg of poly(A) mRNA was used for reverse transcription using the Reverse Transcriptase (BIO-RAD). Real-time PCRs were performed using Power SYBG Green PCR Master Mix (Applied Biosystems). All quantitative PCR (qPCR) reactions were performed in triplicate and normalized against glyceraldehyde-3-phosphate dehydrogenase (GAPDH). Analysis was performed using QuantStudio™ 3 Real-Time PCR System (Thermo Fisher Scientific). The qPCR cycle was: 95° C. for 10 min followed by 40 cycles at 95° C. for 15 sec and 60° C. for 1 min.

[3] = test system: ciliated neurons in cortex and dentate gyrus of Tsc1 mutant mice; test: Ciliated neurons in brain of Tsc1 mutant mice (immunohistochemistry, manual cilia counting); type: in vivo, mouse; settings: rapamycin 6 mg/kg i.p. every other day P7 until P21
Description: Neuronal cilia in TSC mouse models was examined with either a conditional deletion of TSC1 or TSC2 driven by the Synapsin-1 promoter, which results in loss of TSC1/2 proteins in post-mitotic neurons of the cortex and of the hippocampus. The TSC1/SynCre mice (Tsc1 mutant) have a shorter life span (median age postnatal day 35, P35), and they recapitulate many of the neurological manifestations of TSC, including seizures and presence of ectopic giant cells (Meikle et al., A mouse model of tuberous sclerosis: neuronal loss of Tsc1 causes dysplastic and ectopic neurons, reduced myelination, seizure activity, and limited survival; J Neurosci 27, 5546-5558 (2007)). […]
For histological analysis, animals were anesthetized (1 ml of 2.5% Avertin) and perfused transcardially with 4% PFA. […] Finally, the average percentage of neurons with cilia (NeuN^+/ACIII^+) was calculated in each of the images. […] The average percentage of SMI311^+ or SMI311^− with cilia was calculated. […] A threshold for cilia count was set such that only ACIII positive objects that measured longer than 1 μm were counted as cilia. All the imaging and the quantification were done in a blinded way. […]

| Structure (SMILES) | IC50 [1] | increased hspB1 expression [2] | ciliation defects [3] |
| --- | --- | --- | --- |
| C=CCNC1=C2C[C@@H](C)C[C@H](OC)[C@H](O)[C@@H](C)/C=C(\C)[C@H](OC(N)=O)[C@@H](OC)C=C/C=C(\C)C(=O)NC(=CC1=O)C2=O [17-AGG, 3 S,5S,6R,7S,8E,10R,11S,12E,14E)-21-(allylamino)-6-hydroxy-5,11-dimethoxy-3,7,9,15-tetramethyl-16,20,22-trioxo-17-azabicyclo[16.3.1]docosa-8,12,14,18,21-pentaen-10-yl] carbamate] | […] | reversed | – |
| CO[C@H]1C[C@@H]2CC[C@@H](C)[C@@](O)(O2)C(=O)C(=O)N2CCCC[C@H]2C(=O)O[C@H]([C@H](C)C[C@@H]2CC[C@@H](O)[C@H](OC)C2)CC(=O)[C@H](C)/C=C(\C)[C@@H](O)[C@@H](OC)C(=O)[C@H](C)C[C@H](C)/C=C/C=C/C=C/1C [rapamycin] | – | – | prevented |
